Patent US20260207720A1, “COMPOSITIONS AND METHODS FOR TREATING FUNGAL INFECTIONS” (MUCPharm Pty Ltd, priority 2022, published 2026)
Converted amounts (≈) assume the structure as drawn. Where two headings read alike, the source gives them in different places.

Legend:
Assay type in all cases: cell-based
[1] = system: Aspergillus fumigatus (ATCC strain 13697); assay: Broth dilution susceptibility test, MIC and percent growth (Example 7); settings: for MIC: FIGS. 13a, 14a; for effect at lower concentrations (in words): Voriconazole 1 μg/ml and 0.5 μg/ml, Caspofungin 0.25 μg/ml and 0.125 μg/ml
Experimental: (§1) A. Preparation of inoculum: • 1. Candida glabrata was grown on Sabouraud dextrose agar (SDA) at 37° C. for 24-48 hrs. • 2. Following this, 5 colonies of 1 mm diameter were picked and suspended in 5 mL sterile saline (0.9% saline) and vortexed for 15 seconds. • 3. Working suspension is prepared as a 1:100 dilution from stock suspension with RPMI 1640 culture medium. • 4. The cell density is adjusted with a spectrophotometer to the transmittance produced by a 0.5 McFarland standard (0.08 to 0.1) OD at 625 nm wavelength.
(§2) • 1. For Bromelain, a stock concentration of 1 mg/ml Bromelain solution was prepared in RPMI media and diluted to test concentrations of 62.4, 31.2, 15.6 and 7.8 μg/ml in RPMI 1640 media. • 2. Acetylcysteine stock concentration is 200 mg/ml, diluted to 40, 20, 10, and 5 mg/ml concentrations in RPMI 1640 medium. • 3. These concentrations are prepared at 2× of the required concentrations in the final assay plate.
(§3) Antifungal stock concentrations are as follows— • 1. Amphotericin B, Stock concentration: 250 μg/ml in water. • 2. Posaconazole, Original concentration: 300 mg in 16.7 ml, Working stock concentration: 1 mg/ml in DMSO. • 3. Fluconazole, Original concentration: 100 mg in 50 ml, Working stock concentration: 1 mg/ml in DMSO. • 4. The final concentration was prepared in RPMI 1640 media and concentrations range was 0.01-0.5 μg/mL for amphotericin B, 0.01-2 μg/mL for posaconazole and 0.01-64 μg/mL for fluconazole. • 5. These concentrations were prepared at 2× of the required concentrations in the final assay plate.
(§4) • 1. Wells of the 96-well plates were inoculated with appropriate concentrations and volumes of drugs. • 2. Sterility control and growth controls are included in each plate. • 3. Each 96-well plate (except the control wells) contains 100 μL of double strength (twice the final antifungal drug) concentrations. • 4. 100 μL of the fungal suspension is added to 96-well plates (except the sterility control wells). • 5. The growth control wells contained 100 μL of sterile drug-free medium and 100 μL of inoculum suspension, while the sterility control wells contained 200 μl of sterile drug-free medium. • 6. Plates are then incubated at 37° C. and read at 625,430, and 530 nm wavelengths. • 7. Data from 24 hours and absorbance at 625 nm were used for analysis.
These experiments were conducted to determine the efficacy of BromAc alone and in combination with existing antifungal drugs against Aspergillus fumigatus (ATCC strain 13697).
The method used in these experiments is essentially the same as that described above in Example 5. In these experiments, however, echinocandins such as […] Caspofungin are used in place of the azole antifungals described in earlier examples.

[2] = system: Candida glabrata (clinical isolate); assay: Broth dilution susceptibility test, MIC and percent growth (Example 5)
Experimental: These experiments were conducted to determine the effect of BromAc alone and in combination with existing antifungal drugs against Candida glabrata (clinical isolate).
as §1, §2, §3, §4

[3] = system: Candida Krusei (ATCC strain 6258); assay: Broth dilution susceptibility test, MIC and percent growth (Example 6)
Experimental: as §1, §2, §3, §4
These experiments were conducted to determine the effect of BromAc alone and in combination with existing antifungal drugs against Candida Krusei (ATCC strain 6258).
The method used in these experiments is essentially the same as that described above in Example 5.

[4] = system: Candida auris; assay: Susceptibility assay of antifungals with BromAc (Example 4); settings: for Observed inhibitory effect: Candida aurus, antifungal in combination with BromAc (5 mg/ml Acetylcysteine+12.5 μg/ml Bromelain) vs alone
Experimental: (§5) The in vitro antifungal properties of Bromelain, Acetylcysteine, BromAc, Amphotericin B, Isavuconazole, Fluconazole and Posaconazole were determined using a broth microdilution method in round bottom 96 well plates in accordance with standard procedures defined by the Clinical Laboratory Standards Institute (CLSI).
(§6) Unless otherwise described, fungal cultures were grown on potato dextrose agar plates at 35° C. until mature (appearance of conidia) and used to prepare suspensions in sterile water. Suspensions were diluted in RPMI 1:60. These suspensions were then added in equal volume to solutions containing the candidate species described above and incubated at 35° C. for 24 hr. Plates were then analysed for fungal growth inhibition and MIC values determined.
(§7) BromAc (5 mg/ml Acetylcysteine+12.5 μg/ml Bromelain) was used in combination with Amphotericin B, Isavuconazole, Posaconazole and Fluconazole. The MIC values of these four antifungal agents against the fungus described below were calculated and compared with their corresponding MIC values in the presence of BromAc, using the standard susceptibility assays described above.
(§8) The fungal strains set out in Table 2, all of which were sourced from a range of clinical isolates from Australian hospitals, were used in these experiments to gain a further understanding of the efficacy of BromAc in combination with Amphotericin B, Isavuconazole, Posaconazole and Fluconazole.

[5] = system: Candida glabrata; assay: as above; settings: for Observed inhibitory effect: antifungal in combination with BromAc (5 mg/ml Acetylcysteine+12.5 μg/ml Bromelain) vs alone
Experimental: as §5, §6, §7, §8

[6] = system: Candida kruseii; assay: as above; settings: antifungal in combination with BromAc (5 mg/ml Acetylcysteine+12.5 μg/ml Bromelain) vs alone
Experimental: as §5, §6, §7, §8

[7] = system: Candida tropicalis; assay: as above; settings: antifungal in combination with BromAc (5 mg/ml Acetylcysteine+12.5 μg/ml Bromelain) vs alone
Experimental: as §5, §6, §7, §8

[8] = system: Cryptococcus; assay: as above; settings: for Observed inhibitory effect: antifungal in combination with BromAc (5 mg/ml Acetylcysteine+12.5 μg/ml Bromelain) vs alone; for isolates with more than 10× increase: antifungal with BromAc
Experimental: as §5, §6, §7, §8

[9] = system: Rhizopus arrhizus; assay: Chequerboard broth microdilution antifungal susceptibility testing (MIC)
Experimental: as §6, with “Suspensions were diluted in RPMI 1:60.” left out, “determined. […] [MICA (combined)/MICA]+[MICB (combined)/MICB] MICA (combined) is the MIC of drug A when both drugs (i.e. drug A and drug B) are present and MICA is the MIC of drug A used in isolation. Similarly, MICB (combined) is the MIC of drug B when both drugs are present and MICB is the MIC of drug B used in isolation.” for “determined.”

[10] = system: Rhizopus microsporus; assay: as above
Experimental: as §6, with “Suspensions were diluted in RPMI 1:60.” left out, “determined. […] [MICA (combined)/MICA]+[MICB (combined)/MICB] MICA (combined) is the MIC of drug A when both drugs (i.e. drug A and drug B) are present and MICA is the MIC of drug A used in isolation. Similarly, MICB (combined) is the MIC of drug B when both drugs are present and MICB is the MIC of drug B used in isolation.” for “determined.”

[11] = system: Aspergillus; assay: Susceptibility assay of antifungals with BromAc (Example 4); settings: antifungal in combination with BromAc (5 mg/ml Acetylcysteine+12.5 μg/ml Bromelain) vs alone
Experimental: as §5, §6, §7, §8

[12] = system: Cunninghamella; assay: as above; settings: antifungal in combination with BromAc (5 mg/ml Acetylcysteine+12.5 μg/ml Bromelain) vs alone
Experimental: as §5, §6, §7, §8

[13] = system: Fusarium; assay: as above; settings: antifungal in combination with BromAc (5 mg/ml Acetylcysteine+12.5 μg/ml Bromelain) vs alone
Experimental: as §5, §6, §7, §8

[14] = system: Licthemia; assay: as above; settings: antifungal in combination with BromAc (5 mg/ml Acetylcysteine+12.5 μg/ml Bromelain) vs alone
Experimental: as §5, §6, §7, §8

[15] = system: Lomentospora; assay: as above; settings: antifungal in combination with BromAc (5 mg/ml Acetylcysteine+12.5 μg/ml Bromelain) vs alone
Experimental: as §5, §6, §7, §8

[16] = system: Mucor circinelloides; assay: as above
Experimental: as §5, §6, §7, §8

[17] = system: Scedosporium; assay: as above; settings: antifungal in combination with BromAc (5 mg/ml Acetylcysteine+12.5 μg/ml Bromelain) vs alone
Experimental: as §5, §6, §7, §8

CC[C@H](C)C[C@H](C)CCCCCCCCC(=O)N[C@H]1C[C@@H](O)[C@@H](NCCN)NC(=O)[C@@H]2[C@@H](O)CCN2C(=O)[C@H]([C@H](O)CCN)NC(=O)[C@H]([C@H](O)[C@@H](O)c2ccc(O)cc2)NC(=O)[C@@H]2C[C@@H](O)CN2C(=O)[C@H]([C@@H](C)O)NC1=O [Caspofungin]
MIC [1]: > 1 µg/mL | effect at lower concentrations (in words) [1]: almost no inhibitory effect

OC(Cn1cncn1)(Cn1cncn1)c1ccc(F)cc1F [Fluconazole]
MIC ([2]; Nakaseomyces glabratus, 50% growth inhibition, 24 hours, 625 nm): > 32 µg/mL | effect at lower concentration compared to growth control (in words) ([2]; concentrations lower than the MIC): no change | MIC ([3]; Pichia kudriavzevii, ATCC6258, 50% growth inhibition, FIG. 11): 32 µg/mL | inhibition at 32 µg/mL ([3]; Pichia kudriavzevii, ATCC6258, Posaconazole 1 ug/ml, Fluconazole 32 μg/ml, read-out: activity (growth inhibition) at its MIC): 50% | effect at lower doses / concentrations compared to GC (in words) ([3]; below the MIC (Posaconazole 0.03 μg/ml)): no efficacy | Observed inhibitory effect [4]: No effect | Observed inhibitory effect [5]: Strong (Strong = 5-10x (or greater) inhibitory effect) | Observed inhibitory effect [6]: Strong (Strong = 5-10x (or greater) inhibitory effect) | Observed inhibitory effect [7]: Strong (Strong = 5-10x (or greater) inhibitory effect) | Observed inhibitory effect [8]: Strong (Strong = 5-10x (or greater) inhibitory effect) | isolates with more than 10× increase [8]: 5 of 5

C[C@@H](c1nc(-c2ccc(C#N)cc2)cs1)[C@](O)(Cn1cncn1)c1cc(F)ccc1F [Isavuconazole]
isolates with 10× increase ([9]; Rhizopus Arrhizus, antifungal with BromAc): 6 of 8 | MIC ([9]; Rhizopus arrhizus, eight R. arrhizus strains, read-out: MIC, average over the strains): 0.8 µg/mL (≈ 1.83 µM) | MIC ([9]; Rhizopus arrhizus, isolate R. archizus 1, BromAc at constant concentration where combined, read-out: MIC): 1 µg/mL | MIC ([9]; Rhizopus arrhizus, isolate R. archizus 2, BromAc at constant concentration where combined, read-out: MIC): 1 µg/mL | MIC ([9]; Rhizopus arrhizus, isolate R. archizus 3, BromAc at constant concentration where combined, read-out: MIC): 1 µg/mL | MIC ([9]; Rhizopus arrhizus, isolate R. archizus 8, BromAc at constant concentration where combined, read-out: MIC): 1 µg/mL | MIC ([9]; Rhizopus arrhizus, isolate R. arrhizus 4, BromAc at constant concentration where combined, read-out: MIC): 1 µg/mL | MIC ([9]; Rhizopus arrhizus, isolate R. arrhizus 5, BromAc at constant concentration where combined, read-out: MIC): 0.5 µg/mL | MIC ([9]; Rhizopus arrhizus, isolate R. arrhizus 6, BromAc at constant concentration where combined, read-out: MIC): 1 µg/mL | MIC ([9]; Rhizopus arrhizus, isolate R. arrhizus 7, BromAc at constant concentration where combined, read-out: MIC): 0.5 µg/mL | Observed inhibitory effect ([9]; Rhizopus arrhizus, antifungal in combination with BromAc (5 mg/ml Acetylcysteine+12.5 μg/ml Bromelain) vs alone): Strong (Strong = 5-10x (or greater) inhibitory effect) | MICs, range over the strains ([9]; eight R. arrhizus strains): 0.5 to 2 µg/mL | isolates with more than 10× increase ([10]; Rhizopus microspores, antifungal with BromAc): 9 of 10 | MIC ([10]; Rhizopus microsporus, eight R. microsporus strains, read-out: MIC, average over the strains): 0.9 µg/mL (≈ 2.06 µM) | MIC ([10]; Rhizopus microsporus, isolate R. microsporus 1, BromAc at constant concentration where combined, read-out: MIC): 0.2 µg/mL | MIC ([10]; Rhizopus microsporus, isolate R. microsporus 2, BromAc at constant concentration where combined, read-out: MIC): 0.5 µg/mL | MIC ([10]; Rhizopus microsporus, isolate R. microsporus 3, BromAc at constant concentration where combined, read-out: MIC): 0.5 µg/mL | MIC ([10]; Rhizopus microsporus, isolate R. microsporus 4, BromAc at constant concentration where combined, read-out: MIC): 1 µg/mL | MIC ([10]; Rhizopus microsporus, isolate R. microsporus 5, BromAc at constant concentration where combined, read-out: MIC): 0.5 µg/mL | MIC ([10]; Rhizopus microsporus, isolate R. microsporus 6, BromAc at constant concentration where combined, read-out: MIC): 0.5 µg/mL | MIC ([10]; Rhizopus microsporus, isolate R. microsporus 7, BromAc at constant concentration where combined, read-out: MIC): 0.5 µg/mL | Observed inhibitory effect ([10]; Rhizopus microsporus, antifungal in combination with BromAc (5 mg/ml Acetylcysteine+12.5 μg/ml Bromelain) vs alone): Strong (Strong = 5-10x (or greater) inhibitory effect) | MICs, range over the strains ([10]; eight R. microsporus strains): 0.5 to 1 µg/mL | Observed inhibitory effect [11]: Moderate (Moderate = 1-5x inhibitory effect) | isolates with more than 10× increase ([4]; Candida auris, antifungal with BromAc): 4 of 5 | Observed inhibitory effect [4]: Strong (Strong = 5-10x (or greater) inhibitory effect) | Observed inhibitory effect [5]: Strong (Strong = 5-10x (or greater) inhibitory effect) | isolates with more than a 10× increase in sensitivity ([5]; antifungal with BromAc): 5 of 5 | Observed inhibitory effect [6]: Strong (Strong = 5-10x (or greater) inhibitory effect) | Observed inhibitory effect [7]: Strong (Strong = 5-10x (or greater) inhibitory effect) | Observed inhibitory effect [8]: Strong (Strong = 5-10x (or greater) inhibitory effect) | isolates with more than 10× increase [8]: 5 of 5 | Observed inhibitory effect [12]: Possible | Observed inhibitory effect [13]: No effect | Observed inhibitory effect [14]: Possible | Observed inhibitory effect [15]: No effect | Observed inhibitory effect ([16]; antifungal in combination with BromAc (5 mg/ml Acetylcysteine+12.5 μg/ml Bromelain) vs alone): Strong (Strong = 5-10x (or greater) inhibitory effect) | isolates with increased sensitivity ([16]; antifungal with BromAc): 2 of 2 | Observed inhibitory effect [17]: No effect

C[C@@H](c1ncncc1F)[C@](O)(Cn1cncn1)c1ccc(F)cc1F [Voriconazole]
MIC ([1]; Aspergillus fumigatus, ATCC13697, read-out: MIC): 2 µg/mL | effect at lower concentrations (in words) [1]: almost no inhibitory effect
